We go through two compounds from patent EP4613269A1, “RIFAXIMIN FOR USE IN TREATING SARCOPENIA IN PATIENTS WITH LIVER DISEASE” (priority 2024, dated 2025).

Data set [1] in a line: Retrospective cohort study: skeletal muscle area (SMA) at L3 from serial abdominal CT scans. The conditions noted are these: for Follow-up skeletal muscle area: Median (IQR) at second CT scan, rifaximin N = 63 (with lactulose), lactulose alone N = 79; for median change in SMA: between first and second abdominal CT scan (3-9 months apart), patients with cirrhosis and HE, rifaximin 550 mg twice daily orally with lactulose vs lactulose monotherapy. It counts as in vivo, human. An excerpt:
(§1) This study is a single-centre retrospective cohort study of patients treated with lactulose or rifaximin with lactulose, under the care of the liver transplant service in Melbourne, Australia, between 2009 and 2022. The primary outcome measure was a change in muscle mass over time between the rifaximin versus non-rifaximin treated cohort. Secondary outcomes included. Clostridium difficile infection and mortality.
(§2) All adult patients (age >18 years) with cirrhosis and documented clinically apparent hepatic encephalopathy (HE) known to the Victorian liver transplant service were considered for analysis. Inclusion criteria required patients to have had serial abdominal CT scans at least 3 months and at most 9 months apart during their time on the liver transplant waitlist to allow for comparison of muscle mass over time. Rifaximin became widely available as a treatment of HE on the Pharmaceutical Benefits Scheme in Australia in January 2014. Therefore, patients on lactulose monotherapy (January 2009 to December 2013) were compared to those receiving rifaximin with lactulose (January 2014 to July 2022). Patients were orally administered 550 mg of rifaximin (alpha) twice daily. Lactulose treatment for HE was under standard conditions, i.e. lactulose administration in syrup form at a dose of 15 to 30 mL two to four times a day to aim for two semisoft stools per day. Patients otherwise received standard of care management of cirrhosis including nutritional advice from an experienced liver dietitian.
Muscle mass data was calculated from CT scans performed at two time-points in the patient journey to determine progress and change of outcomes. The first time-point for data collection, including for demographics and blood parameters, was time of first CT. The second time-point for data collection was collected between three to nine months following the first time point when the follow up CT was performed.
SMA was measured using the cross-sectional area of the abdominal muscles at the third lumbar vertebrae (L3) using CoreSlicer (^©2018), a web-based program for accurate measurement of body composition, verified for this purpose (Mullie & Afilalo "CoreSlicer: a web toolkit for analytic morphomics" BMC Med. Imaging (2019), 19(1): 15).
Statistical analysis was performed using R version 4.1.1. Subgroups were compared by χ^2 test for categorical variables and Student's t-test or Wilcoxon rank sum test for parametric and non-parametric continuous variables, respectively. Linear regression models (analysis of covariance) were used to assess the impact of clinical variables on muscle endpoints. […]
Averages were expressed as mean ± standard deviation for normally distributed variables, and as medians ± IQR for non-normally distributed variables.

A short description of data set [2]: Retrospective cohort study: clinical outcomes (transplant outcome, mortality, Clostridium difficile infection). The conditions noted are these: for Transplant outcome: Died on list: died awaiting transplantation; for episodes of Clostridium difficile infection: during study follow-up; for Transplant outcome: Delisted / Transplant outcome: Rejected / Transplant outcome: Transplanted: liver transplant waitlist patients with cirrhosis and HE; for median time to death from listing: patients who died awaiting transplant; for Median time-to-transplant: transplanted patients. The data set is classed as in vivo, human.
From the text: as §1, §2
Included data comprised baseline demographics (age, gender, aetiology of liver disease, body mass index (BMI)); disease assessment at workup (Sodium Model of End-Stage Liver Disease (NaMELD)), Child-Pugh-Turcotte (CTP) score; sarcopenia assessment (skeletal muscle area (SMA, cm^2)) from single slice CT scan, sepsis (hospitalisation data for infective complications, episodes of spontaneous bacterial peritonitis); rifaximin complications (Clostridium difficile infections); and mortality and transplantation outcome data.
Patients were followed up until: end outcomes occurred; delisting from service; rejected prior to formal transplant workup; death prior to transplant; or liver transplantation.

In the case of `CO[C@H]1/C=C/O[C@@]2(C)Oc3c(C)c(O)c4c(O)c(c5c(nc6cc(C)ccn65)c4c3C2=O)NC(=O)/C(C)=C\C=C\[C@H](C)[C@H](O)[C@@H](C)[C@@H](O)[C@@H](C)[C@H](OC(C)=O)[C@@H]1C` [Rifaximin, 4-deoxy-4'-methylpyrido[1',2'-1,2]imidazo-[5,4-c] rifamycin SV], in data set [1], the “Follow-up skeletal muscle area” value is reported as 162 (134, 190) cm^2 and the “median change in SMA” value is “+0.74 cm^2”. In data set [2], the “Transplant outcome: Died on list” value is 2 (3.4%) n (%), the “episodes of Clostridium difficile infection” value was “one”, the “Transplant outcome: Delisted” value is 4 (6.9%) n (%) and the “Transplant outcome: Rejected” value is listed as 1 (1.7%) n (%). In addition, in data set [2], the “Transplant outcome: Transplanted” value is 51 (88%) n (%), the “median time to death from listing” value is on record as 265.5 days and the Median time-to-transplant stood at 353 days.

In the case of `OC[C@H]1O[C@@H](O[C@@H]2[C@@H](CO)OC(O)(CO)[C@H]2O)[C@H](O)[C@@H](O)[C@H]1O` (mixture of isomers) [Lactulose alone, Lactulose], in data set [1], the “Follow-up skeletal muscle area” value is reported as 159 (137, 174) cm^2 and the “median change in SMA” value is given as -6.9 cm^2. In data set [2], the “Transplant outcome: Died on list” value is listed as 5 (6.5%) n (%), the “episodes of Clostridium difficile infection” value is “none”, the “Transplant outcome: Delisted” value is 15 (19%) n (%) and the “Transplant outcome: Rejected” value is listed as 0 (0%) n (%). Also, in data set [2], the “Transplant outcome: Transplanted” value is on record as 57 (74%) n (%), the “median time to death from listing” value amounted to 282 days and the Median time-to-transplant worked out at 312.5 days. Moreover, the “Transplant outcome: Died on list” value in data set [2] (listed as lactulose) is recorded as 5 (6.5 %) n (%).
